Results: patent publication US20190105367A1, “ANTIMICROBIAL 4-OXOQUINOLIZINES” (Emergent Product Development Gaithersburg Inc., priority 2011, published 2019)
Converted amounts (≈) assume the structure as drawn. Where two headings read alike, the source gives them in different places.

Experiments:
A. baumannii A472 [1] = assay: Preliminary MBC without and with sub-inhibitory polymyxin B (Example 4); type: cell-based, Acinetobacter baumannii; conditions: Acinetobacter baumannii, preliminary MBC
A. baumannii ATCC 19606 [2] = assay: MIC without and with sub-inhibitory polymyxin B (Example 4); type: cell-based, Acinetobacter baumannii; conditions: for MIC without PB/MIC + PB: A. baumannii ATCC 19606; for MIC: Acinetobacter baumannii
A. baumannii A472 [3] = assay: as above; type: cell-based, Acinetobacter baumannii; conditions: for MIC: Acinetobacter baumannii
A. baumannii A390 [4] = assay: Preliminary MBC without and with sub-inhibitory polymyxin B (Example 4); type: cell-based, Acinetobacter baumannii; conditions: Acinetobacter baumannii, A390, A. baumannii A390, +0.06 μg/ml PB, 2nd experiment, read-out: MBC
Summary of the method: (§1)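 After plating, cultures are held at 37° C for 18-20 hours; the endpoint is then scored by comparing colony growth against the positive control, with MBC defined as the lowest concentration showing roughly 90% reduction.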

A. baumannii A473 [5] = assay: as above; type: cell-based, Acinetobacter baumannii; conditions: Acinetobacter baumannii, A473, A. baumannii A473, +0.06 μg/ml PB, 2nd experiment, read-out: MBC
Summary of the method: as §1

A. baumannii A14 [6] = assay: as above; type: cell-based, Acinetobacter baumannii; conditions: 2nd experiment
Summary of the method: as §1

A. baumannii NCTC 13301 [7] = assay: as above; type: cell-based, Acinetobacter baumannii; conditions: Acinetobacter baumannii
Summary of the method: as §1

A. baumannii A401 [8] = assay: as above; type: cell-based, Acinetobacter baumannii; conditions: Acinetobacter baumannii
A. baumannii A14 [9] = assay: MIC without and with sub-inhibitory polymyxin B (Example 4); type: cell-based, Acinetobacter baumannii; conditions: 2nd experiment
A. baumannii A401 [10] = assay: as above; type: cell-based, Acinetobacter baumannii
A. baumannii A387 [11] = assay: Preliminary MBC without and with sub-inhibitory polymyxin B (Example 4); type: cell-based, Acinetobacter baumannii; conditions: Acinetobacter baumannii
[12] = tested on: Acinetobacter sp. (H064200250); assay: MIC without and with sub-inhibitory polymyxin B (Example 4); type: cell-based; conditions: for MIC: Acinetobacter
A. baumannii A387 [13] = assay: as above; type: cell-based, Acinetobacter baumannii; conditions: for MIC without PB/MIC + PB: A. baumannii A387; for MIC: Acinetobacter baumannii
A. baumannii NCTC 13301 [14] = assay: as above; type: cell-based, Acinetobacter baumannii
A. baumannii A390 [15] = assay: as above; type: cell-based, Acinetobacter baumannii; conditions: +0.06 μg/ml PB, 2nd experiment
A. baumannii NCTC 13301 [16] = assay: as above; type: cell-based, Acinetobacter baumannii; conditions: +[…] PB, 2nd experiment
A. baumannii A14 [17] = assay: as above; type: cell-based, Acinetobacter baumannii; conditions: 1st experiment
A. baumannii A473 [18] = assay: as above; type: cell-based, Acinetobacter baumannii; conditions: +0.06 μg/ml PB, 2nd experiment
[19] = tested on: strains of A. baumannii and one strain of Acinetobacter sp.; assay: MIC with sub-inhibitory concentrations (0.25x MIC) of polymyxin B, panel of Acinetobacter strains (Example 4); type: cell-based
A. baumannii A489 = assay: MIC without and with sub-inhibitory polymyxin B (Example 4); type: cell-based, Acinetobacter baumannii; conditions: for MIC without PB/MIC + PB: A. baumannii A489; for MIC: Acinetobacter baumannii
A. baumannii A329 = assay: Preliminary MBC without and with sub-inhibitory polymyxin B (Example 4); type: cell-based, Acinetobacter baumannii; conditions: Acinetobacter baumannii, A329, A. baumannii A329, +0.06 μg/ml PB, 2nd experiment, read-out: MBC
A. baumannii J2 = assay: MIC without and with sub-inhibitory polymyxin B (Example 4); type: cell-based, Acinetobacter baumannii; conditions: for MIC without PB/MIC + PB: A. baumannii J2; for MIC: Acinetobacter baumannii
A. baumannii ATCC 19606 [20] = assay: Preliminary MBC without and with sub-inhibitory polymyxin B (Example 4); type: cell-based, Acinetobacter baumannii; conditions: Acinetobacter baumannii
A. baumannii A14 [21] = assay: as above; type: cell-based, Acinetobacter baumannii; conditions: Acinetobacter baumannii
[22] = ratio, PB 0.06 μg/ml, 1st experiment
[23] = A. baumannii A14, +0.06 μg/ml PB

Cc1c(-c2ccc(N)cc2)c(F)cn2c(=O)c(C(=O)O)cc(C3CC3)c12 [Compound 7, 8-(4-amino-phenyl)-1-cyclopropyl-7-fluoro-9-methyl-4-oxo-quinolizine-3-carboxylic acid]
MBC (A. baumannii A472 [1]; A472, A. baumannii A472, +[…] PB, 2nd experiment, read-out: MBC): ≤ 0.03 µg/mL | MBC (A. baumannii A472 [1]; A472, read-out: MBC +[…] PB, A. baumannii A472, +[…] polymyxin B, 1st experiment): ≤ 0.03 µg/mL | MIC without PB/MIC + PB (A. baumannii ATCC 19606 [2]; +0.06 μg/ml PB, 2nd experiment): ≥8 | MIC without PB/MIC + PB (A. baumannii ATCC 19606 [2]; [22]): ≥16 | MIC (A. baumannii ATCC 19606 [2]; ATCC19606, A. baumannii ATCC 19606, +0.06 μg/ml PB, 2nd experiment, read-out: MIC): ≤ 0.03 µg/mL | MIC (A. baumannii ATCC 19606 [2]; ATCC19606, read-out: MIC +0.06 μg/ml PB, A. baumannii ATCC 19606, +0.06 μg/ml polymyxin B, 1st experiment): ≤ 0.03 µg/mL | MIC without PB/MIC + PB (A. baumannii A472 [3]; A. baumannii A472, ratio, PB […], 1st experiment): ≥128 | MIC (A. baumannii A472 [3]; A472, A. baumannii A472, +[…] PB, 2nd experiment, read-out: MIC): ≤ 0.03 µg/mL | MIC (A. baumannii A472 [3]; A472, read-out: MIC +[…] PB, A. baumannii A472, +[…] polymyxin B, 1st experiment): ≤ 0.03 µg/mL | MBC (A. baumannii A390 [4]): 0.125 µg/mL (≈ 0.355 µM) | MBC (A. baumannii A473 [5]): 0.06 µg/mL (≈ 0.17 µM) | MBC (A. baumannii A14 [6]; [23]): 2 µg/mL (≈ 5.68 µM) | MBC (A. baumannii A14 [6]; Acinetobacter baumannii, A14, A. baumannii A14, without PB, read-out: MBC): 16 µg/mL (≈ 45.4 µM) | MBC (A. baumannii NCTC 13301 [7]; NCTC13301, A. baumannii NCTC 13301, +[…] PB, preliminary MBC, 2nd experiment, read-out: MBC): ≤ 0.03 µg/mL | MBC (A. baumannii NCTC 13301 [7]; NCTC13301, read-out: MBC +[…] PB): 0.06 µg/mL (≈ 0.17 µM) | MBC (A. baumannii A401 [8]; A401, A baumannii A 401, +0.06 μg/ml PB, 2nd experiment, read-out: MBC): 0.5 µg/mL (≈ 1.42 µM) | MBC (A. baumannii A401 [8]; A401, read-out: MBC +0.06 μg/ml PB, A baumannii A 401, +0.06 μg/ml polymyxin B, 1st experiment): 0.5 µg/mL | MIC (A. baumannii A14 [9]; [23]): 2 µg/mL (≈ 5.68 µM) | MIC without PB/MIC + PB (A. baumannii A14 [9]; [23]): 8 | MIC (A. baumannii A14 [9]; Acinetobacter baumannii, A14, A. baumannii A14, without PB, read-out: MIC): 16 µg/mL (≈ 45.4 µM) | MIC +0.06 μg/ml PB (A. baumannii A401 [10]; A baumannii A 401, +0.06 μg/ml polymyxin B, 1st experiment): 0.5 µg/mL | MIC without PB/MIC + PB (A. baumannii A401 [10]; A baumannii A 401, ratio, PB 0.06 μg/ml, 1st experiment): 8 | MIC (A. baumannii A401 [10]; Acinetobacter baumannii, A401, A baumannii A 401, +0.06 μg/ml PB, 2nd experiment, read-out: MIC): 1 µg/mL (≈ 2.84 µM) | MBC (A. baumannii A387 [11]; A387, A. baumannii A387, +0.06 μg/ml PB, 2nd experiment, read-out: MBC): ≤ 0.03 µg/mL | MBC (A. baumannii A387 [11]; A387, read-out: MBC +0.06 μg/ml PB, A. baumannii A387, +0.06 μg/ml polymyxin B, 1st experiment): ≤ 0.03 µg/mL | MIC without PB/MIC + PB ([12]; Acinetobacter spp. H064200250 (OXA51), +[…] PB, 2nd experiment): ≥512 | MIC without PB/MIC + PB ([12]; Acinetobacter spp. H064200250, ratio, PB […], 1st experiment): 32 | MIC ([12]; Acinetobacter spp. H064200250 (OXA51), +[…] PB, 2nd experiment, read-out: MIC): ≤ 0.03 µg/mL | MIC ([12]; read-out: MIC +[…] PB, Acinetobacter spp. H064200250, +[…] polymyxin B, 1st experiment): 0.25 µg/mL (≈ 0.709 µM) | MIC without PB/MIC + PB (A. baumannii A387 [13]; +0.06 μg/ml PB, 2nd experiment): ≥64 | MIC without PB/MIC + PB (A. baumannii A387 [13]; [22]): ≥64 | MIC (A. baumannii A387 [13]; A387, A. baumannii A387, +0.06 μg/ml PB, 2nd experiment, read-out: MIC): ≤ 0.03 µg/mL | MIC (A. baumannii A387 [13]; A387, read-out: MIC +0.06 μg/ml PB, A. baumannii A387, +0.06 μg/ml polymyxin B, 1st experiment): ≤ 0.03 µg/mL | MIC without PB/MIC + PB (A. baumannii NCTC 13301 [14]; A. baumannii NCTC 13301, ratio, PB […], 1st experiment): 256 | MIC (A. baumannii NCTC 13301 [14]; Acinetobacter baumannii, NCTC13301, read-out: MIC +[…] PB): 0.06 µg/mL (≈ 0.17 µM) | MIC without PB/MIC + PB (A. baumannii A390 [15]; A. baumannii A390): 128 | MIC (A. baumannii A390 [15]; Acinetobacter baumannii, A390, A. baumannii A390, read-out: MIC): 0.125 µg/mL (≈ 0.355 µM) | MIC without PB/MIC + PB (A. baumannii NCTC 13301 [16]; A. baumannii NCTC 13301): ≥512 | MIC (A. baumannii NCTC 13301 [16]; Acinetobacter baumannii, NCTC13301, A. baumannii NCTC 13301, read-out: MIC): ≤ 0.03 µg/mL | MIC +0.06 μg/ml PB (A. baumannii A14 [17]; +0.06 μg/ml polymyxin B): 1 µg/mL | MIC without PB/MIC + PB (A. baumannii A14 [17]; ratio, PB 0.06 μg/ml): 32 | MIC without PB/MIC + PB (A. baumannii A473 [18]; A. baumannii A473): 64 | MIC (A. baumannii A473 [18]; Acinetobacter baumannii, A473, A. baumannii A473, read-out: MIC): 0.06 µg/mL (≈ 0.17 µM) | MIC range with PB (0.25x MIC) Oct. 1, 2008 n = 8 ([19]; 1st experiment, […] polymyxin B, ATCC 19606, A329, A390 and A473 not taken): ≤0.03 to 1 µg/mL | MIC range with PB (0.25x MIC) Oct. 14, 2008 n = 11 ([19]; 2nd experiment, 0.06 μg/ml polymyxin B, all strains except the ATCC strain): ≤0.03 to 2 µg/mL | MIC without PB/MIC + PB (A. baumannii A489; +[…] PB, 2nd experiment): ≥256 | MIC without PB/MIC + PB (A. baumannii A489; ratio, PB […], 1st experiment): ≥256 | MIC (A. baumannii A489; A489, A. baumannii A489, +[…] PB, 2nd experiment, read-out: MIC): ≤ 0.03 µg/mL | MIC (A. baumannii A489; A489, read-out: MIC +[…] PB, A. baumannii A489, +[…] polymyxin B, 1st experiment): ≤ 0.03 µg/mL | MBC (A. baumannii A329): 2 µg/mL (≈ 5.68 µM) | MIC without PB/MIC + PB (A. baumannii J2; +[…] PB, 2nd experiment): ≥128 | MIC without PB/MIC + PB (A. baumannii J2; ratio, PB […], 1st experiment): ≥512 | MIC (A. baumannii J2; J2, A. baumannii J2, +[…] PB, 2nd experiment, read-out: MIC): ≤ 0.03 µg/mL | MIC (A. baumannii J2; J2, read-out: MIC +[…] PB, A. baumannii J2, +[…] polymyxin B, 1st experiment): ≤ 0.03 µg/mL | MBC (A. baumannii ATCC 19606 [20]; ATCC19606, A. baumannii ATCC 19606, +0.06 μg/ml PB, 2nd experiment, read-out: MBC): ≤ 0.03 µg/mL | MBC (A. baumannii ATCC 19606 [20]; ATCC19606, read-out: MBC +0.06 μg/ml PB, A. baumannii ATCC 19606, +0.06 μg/ml polymyxin B, 1st experiment): ≤ 0.03 µg/mL | MBC (A. baumannii A14 [21]; A14, read-out: MBC +0.06 μg/ml PB): 1 µg/mL (≈ 2.84 µM) | MBC (A. baumannii A14 [21]; A. baumannii A14, without polymyxin B, preliminary MBC, 1st experiment, read-out: MBC without PB): 16 µg/mL (≈ 45.4 µM)
